The assay deals with lysozyme (Gallus gallus, UniProt P00698). The assay can be described thus: Relative inhibition of lysozyme, Micrococcus lysodeikticus as substrate (Neuberger and Wilson). Type of assay: biochemical. Conditions: pH 6.2, 20° C. The procedure:
This example describes the estimation of inhibition of lysozyme by copolymers.
Micrococcus lysodeikticus is a substrate for the enzyme lysozyme. Relative binding of copolymers was estimated by using a procedure reported by Neuberger and Wilson (1967).
1.5% w/v stock solutions of copolymer was prepared in 0.0066 M phosphate buffer pH 6.2 containing 0.0154 m sodium chloride and 0.008 M sodium azide. One milliliter of stock solution containing different copolymer concentration was mixed with 1.6 ml of 78 μg/ml of Micrococcus lysodeikticus in a 3-ml capacity glass cuvette. The mixture was incubated for 5 minutes at 20° C. To this mixture 0.1 ml of lysozyme (27 μg/ml) was added and mixed thoroughly. The relative absorbance at 450 nm (Δ450) was recorded for 30 seconds. A blank reading without the copolymer was noted and the change in the absorbance per second was calculated. Then relative inhibition was calculated.

Chain of lysozyme (P00698 19-147): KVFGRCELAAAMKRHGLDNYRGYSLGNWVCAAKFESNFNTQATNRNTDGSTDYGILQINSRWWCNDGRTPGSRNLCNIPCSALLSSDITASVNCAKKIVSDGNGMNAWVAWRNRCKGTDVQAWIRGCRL

Turning to `CC(=O)N[C@H]1C(O)O[C@H](CO)[C@@H](O)[C@@H]1O` (some centres unmarked) [NAG, N-Acetyl Glucosamine], the “Imax” value is, setting by setting: (concentration at Imax) 92.5 mM; (maximum relative inhibition of lysozyme) 55.29.

These data come from patent publication US6825308B1, “Copolymers and preparation thereof” (Council of Scientific and Industrial Research, priority 2003, dated 2004).
